Reference: patent publication US11873298B2, “Compounds and uses thereof” (JANSSEN PHARMACEUTICA NV, priority 2017, dated 2024)

Columns and labels:
[1] = target: T1, SCD5 (Homo sapiens, UniProt Q86SK9); assay: Growth inhibition of humanized yeast strain expressing SCD5 as sole desaturase; type: cell-based
T1 construct: host or cells: S. cerevisiae ole1Δ strain (W303 pdr1Δ pdr3Δ background), plasmid pRS316 with TDH3 promoter and CYC1 terminator
T1 sequence (Q86SK9 1-330): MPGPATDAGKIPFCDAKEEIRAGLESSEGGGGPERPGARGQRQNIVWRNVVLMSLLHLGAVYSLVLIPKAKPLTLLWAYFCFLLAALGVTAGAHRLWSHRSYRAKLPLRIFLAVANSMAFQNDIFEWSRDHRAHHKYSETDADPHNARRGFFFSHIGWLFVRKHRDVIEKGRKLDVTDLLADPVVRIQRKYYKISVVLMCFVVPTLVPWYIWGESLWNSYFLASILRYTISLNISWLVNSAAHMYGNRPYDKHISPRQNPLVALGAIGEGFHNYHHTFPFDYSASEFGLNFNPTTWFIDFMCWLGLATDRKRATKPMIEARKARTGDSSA
How it was run: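 OD600 growth read-out. ole1Δ yeast, pdr1Δ pdr3Δ, with Ole1/SCD1/SCD5 on a plasmid; SX-Ura media throughout; 2× cell density 0.02 in CSM-Galactose; DMSO compound dilutions; humidified 30° C.; Ole1 stopped at 24 h, SCD1/SCD5 at 40 h.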

[2] = target: T2, SCD1 (Homo sapiens, UniProt O00767); assay: Growth inhibition of humanized yeast strain expressing SCD1 as sole desaturase; type: cell-based
T2 construct: host or cells: S. cerevisiae ole1Δ strain (W303 pdr1Δ pdr3Δ background), plasmid pRS316 with TDH3 promoter and CYC1 terminator
T2 sequence (O00767 1-359): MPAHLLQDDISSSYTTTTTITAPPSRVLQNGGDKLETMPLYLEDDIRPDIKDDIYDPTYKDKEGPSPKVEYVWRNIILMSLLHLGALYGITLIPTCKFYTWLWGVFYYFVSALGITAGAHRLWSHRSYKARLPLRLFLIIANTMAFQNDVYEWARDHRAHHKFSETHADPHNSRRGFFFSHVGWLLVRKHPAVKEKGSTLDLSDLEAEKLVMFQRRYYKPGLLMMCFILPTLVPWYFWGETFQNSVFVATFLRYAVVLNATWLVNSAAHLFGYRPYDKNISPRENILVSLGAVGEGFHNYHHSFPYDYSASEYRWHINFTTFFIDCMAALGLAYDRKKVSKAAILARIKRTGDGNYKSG
Method: Strain oleΔ (yeast ole1 deletion mutant) was constructed by deleting OLE1 with NAT-MX6 in BY4741, amplifying the deletion cassette from the genomic DNA of the resulting strain with primers flanking the ORF by 1000 bp upstream and downstream, transforming the resulting deletion cassette into W303 pdr1Δ pdr3Δ, and plating transformants on YPD media containing G418 (200 μg/mL) and nourseothricin ([…]) with 0.01% TWEEN®-20 and 0.5 mM oleic and palmitoleic acids.
The coding sequence of yeast OLE1 was also cloned into this plasmid). These clones were then transformed into the ole1Δ strain and plated on CSM-Ura media (CSM lacking uracil) with 2% glucose (w/v) and independent colonies were isolated and amplified.
All compound profiling experiments were performed using the same basic protocol. Different genetic backgrounds (e.g., gene deletions) or conditions (e.g., addition of oleic and palmitoleic acid) were replaced as indicated below.
Yeast were cultured using standard techniques in complete synthetic media (CSM) and yeast nitrogen base supplemented with 2% (w/v) carbon source (glucose, raffinose, or galactose) to regulate the expression of the toxic disease protein. An initial starter culture was inoculated in 3 mL CSM-Glucose media and incubated overnight in a 30° C. shaker incubator (225 rpm). Saturated morning cultures were then diluted 1:20 in fresh CSM-Raffinose media and grown for 6 h to an OD600 (optical density) of ˜0.4-0.8 at 30° C. with shaking.
Compound administration was performed in two separate steps. First, 15 μL of CSM-Galactose (induces expression of toxic protein) was dispensed into clear 384 well assay plates using a MULTIDROP™ Combi reagent dispenser. […] The cultures described above were then diluted to a 2× concentration (0.03 and 0.08 for alpha-synuclein and ApoE, final ODsoo of 0.015 and 0.04) in CSM-Galactose. For wild-type and Ole1/SCD1/SCD5 plasmid-containing strains, the 2× cell density was 0.02. […] For 96-well assays (FIGS. 1A and 1B), compound dilutions in DMSO were generated in 96 well plates and 1 μL was manually pipetted into 96 well clear bottom assay plates.
For experiments using a plasmid-borne copy of Ole1, SCD1, or SCD5 (FIGS. 3B, 6, and 7), media lacking uracil (SX-Ura, where X is glucose, raffinose, or galactose), was used for all steps of the compound profiling protocol to ensure its maintenance throughout the assay.
After yeast delivery, assay plates were incubated under humidified conditions at 30° C. for 24 to 40 h. ApoE4 rescue experiments were stopped at 24 h, aSyn experiments at 40 h, Ole1 at 24 h, and SCD1/SCD5 at 40 h. The growth of yeast was monitored by reading the ODsoo of each well using a microplate reader (Perkin Elmer EnVision™).

[3] = humanized yeast strain expressing SCD5
[4] = humanized yeast strain expressing SCD1
[5] = growth inhibition of humanized yeast strain expressing human SCD5
[6] = growth inhibition of humanized yeast strain expressing human SCD1

Structure (SMILES)	IC50 [1, 3] [µM]	IC50 [2, 4] [µM]	IC50 [1, 5] [µM]	IC50 [2, 6] [µM]
Cc1nn(C)c2cc(-c3noc(C4CCN(C(=O)OC(C)(C)C)CC4(F)F)n3)ccc12 (centres unmarked) [Compound 504]	14.8	> 45	–	–
CC(C)n1ncc2ccc(-c3noc(C4CCNCC4(F)F)n3)cc21 (centres unmarked) [Compound 508]	> 45	> 45	–	–
CC(C)n1ncc2ccc(-c3noc(C4CCN(C(=O)OC(C)(C)C)C=C4F)n3)cc21 (centres unmarked) [Compound 509]	> 45	> 45	–	–
Cc1nn(C)c2cc(-c3noc(C4CCN(C(=O)CN)CC4(F)F)n3)ccc12 (centres unmarked) [Compound 512]	> 45	> 45	–	–
CC(C)n1ncc2ccc(-c3noc(N4C[C@@H]5CN(C(=O)OC(C)(C)C)C[C@H]5C4)n3)cc21 [Compound 513]	> 45	> 45	–	–
Cc1nn(C)c2cc(-c3noc(C4CCN(c5nc6ccccc6o5)CC4)n3)ccc12 [Compound 514]	> 45	> 45	–	–
CC(C)n1ncc2ccc(N3CC4(CCN(C(=O)OC(C)(C)C)CC4)OC3=O)cc21 [Compound 515]	> 45	16.5	–	–
CC(C)n1ncc2ccc(-c3noc(C4CCN(S(=O)(=O)C5CCCCC5)CC4)n3)cc21 [Compound 516]	> 45	> 45	–	–
COC1CCC(S(=O)(=O)N2CCC(c3nc(-c4ccc5cnn(C(C)C)c5c4)no3)CC2)CC1 (centres unmarked) [Compound 517]	> 45	> 45	–	–
Cc1nn(C)c2cc(-c3noc(C4CCN(C(=O)CCC(F)(F)F)CC4)n3)ccc12 [Compound 518]	2.95	> 45	–	–
CC(C)n1ncc2ccc(-c3noc(C4CCN(C(=O)CNC(=O)c5ccccc5)CC4(F)F)n3)cc21 (centres unmarked) [Compound 519]	> 45	> 45	–	–
CC(C)n1ncc2ccc(-c3noc(C4CCN(C(=O)CNC(=O)c5ccc(F)cc5)CC4(F)F)n3)cc21 (centres unmarked) [Compound 520]	> 45	> 45	–	–
CC(C)n1ncc2ccc(-c3noc(C4CCN(C(=O)CNC(=O)c5ccc(Cl)cc5)CC4(F)F)n3)cc21 (centres unmarked) [Compound 521]	8.79	> 45	–	–
CC(C)n1ncc2ccc(-c3noc(C4CCN(C(=O)CNC(=O)c5cccc(Cl)c5)CC4(F)F)n3)cc21 (centres unmarked) [Compound 522]	> 45	> 45	–	–
CC(C)n1ncc2ccc(-c3noc(C4CCN(C(=O)CNC(=O)c5cccc(C#N)c5)CC4(F)F)n3)cc21 (centres unmarked) [Compound 523]	> 45	> 45	–	–
CC(C)n1ncc2ccc(-c3nc(C4CCN(C(=O)OC(C)(C)C)C4)no3)cc21 (centres unmarked) [Compound 524]	2.5	> 45	–	–
CC(C)n1ncc2ccc(-c3noc(C4CCN(C(=O)CNC(=O)OC(C)(C)C)CC4(F)F)n3)cc21 (centres unmarked) [Compound 525]	> 45	> 45	–	–
Cc1nn(C)c2cc(-c3noc([C@H]4CC[C@H](O)CC4)n3)ccc12 [Compound 526]	> 45	> 45	–	–
Cc1nn(C)c2cc(-c3noc(C4CCN(C(=O)CNC(=O)OC(C)(C)C)CC4(F)F)n3)ccc12 (centres unmarked) [Compound 527]	1.46	0.958	–	–
CC(C)n1ncc2ccc(-c3nc(C4CCNC4)no3)cc21 (centres unmarked) [Compound 531]	> 45	> 45	–	–
CC(C)n1ncc2ccc(-c3nc(C4CCN(C(=O)CC(C)(C)C)C4)no3)cc21 (centres unmarked) [Compound 542]	7.33	> 45	–	–
CC(C)n1ncc2ccc(-c3noc(N4CCN(C(=O)c5cccc(F)c5)CC4)n3)cc21 [Compound 547]	44.3	> 45	–	–

Structure (SMILES)	IC50 [1, 3] [µM]	IC50 [2, 4] [µM]	IC50 [1, 5] [µM]	IC50 [2, 6] [µM]
CC(C)n1ncc2ccc(-c3noc(C4CCN(C(=O)CNC(=O)c5cccc(F)c5)CC4(F)F)n3)cc21 (centres unmarked) [Compound 551]	> 45	> 45	–	–
CC(C)n1ncc2ccc(-c3noc(C4CCN(C(=O)CNC(=O)c5ccc(C#N)cc5)CC4(F)F)n3)cc21 (centres unmarked) [Compound 552]	> 45	> 45	–	–
Cc1nn(C)c2cc(-c3noc(C4CCN(C(=O)CNC(=O)c5ccc(Cl)cn5)CC4(F)F)n3)ccc12 (centres unmarked) [Compound 553]	0.885	5.71	–	–
Cc1nn(C)c2cc(-c3noc(C4CCN(C(=O)CNC(=O)c5ccc(Cl)cc5)CC4(F)F)n3)ccc12 (centres unmarked) [Compound 554]	1.07	4.08	–	–
Cc1nn(C)c2cc(-c3noc(C4CCN(C(=O)CNC(=O)c5ccc(F)cc5)CC4(F)F)n3)ccc12 (centres unmarked) [Compound 557]	6.03	> 45	–	–
CC(C)n1ncc2ccc(-c3noc(C4CCCN(C(=O)OC(C)(C)C)C4)n3)cc21 (centres unmarked) [Compound 563]	> 45	> 45	–	–
Cc1nn(C)c2cc(-c3noc(C4CCN(CC5COC(=O)C5)CC4)n3)ccc12 (centres unmarked) [Compound 567]	> 45	> 45	–	–
Cc1nn(C)c2cc(-c3noc([C@H]4CCN(C(=O)CNC(=O)c5ccccc5)CC4(F)F)n3)ccc12 [Compound 578]	1.49	8.46	–	–
CC(C)n1ncc2ccc(-c3noc(C4CCN(C(=O)CNC(=O)C5CC5)CC4(F)F)n3)cc21 (centres unmarked) [Compound 579]	> 45	> 45	–	–
CC(C)n1ncc2ccc(-c3nc(N4CCN(C(=O)c5ccccc5Cl)CC4)no3)cc21 [Compound 580]	0.022	14.1	–	–
CC(CF)n1ncc2ccc(-c3noc(C4CCN(C(=O)CC(C)(C)C)CC4)n3)cc21 (centres unmarked) [Compound 583]	0.989	> 45	–	–
CC(C)n1ncc2ccc(-c3noc(C4CCN(C(=O)OC5(C)CC5)CC4(F)F)n3)cc21 (centres unmarked) [Compound 584]	5.34	> 45	–	–
CC(CF)n1ncc2ccc(-c3noc(C4CCN(C(=O)CC5(C)CC5)CC4)n3)cc21 (centres unmarked) [Compound 585]	1.81	> 45	–	–
Cc1nn(C)c2cc(-c3noc(C4CCN(C(=O)CNC(=O)c5ccc(C#N)cc5)CC4(F)F)n3)ccc12 (centres unmarked) [Compound 601]	5.69	> 45	–	–
Cc1nn(C)c2cc(-c3noc(C4CCN(C(=O)CNC(=O)c5cccc(F)c5)CC4(F)F)n3)ccc12 (centres unmarked) [Compound 602]	2.74	15.9	–	–
Cc1nn(C)c2cc(-c3noc(C4CCN(C(=O)CNC(=O)c5cccc(Cl)c5)CC4(F)F)n3)ccc12 (centres unmarked) [Compound 603]	2.41	7.26	–	–
Cc1nn(C)c2cc(-c3noc(C4CCN(C(=O)CNC(=O)c5cccc(C#N)c5)CC4(F)F)n3)ccc12 (centres unmarked) [Compound 604]	6.12	> 45	–	–
CC(C)n1ncc2ccc(-c3nc(C4CN(C(=O)OC(C)(C)C)C4)no3)cc21 [Compound 605]	0.513	31.8	–	–
CC(C)n1ncc2ccc(-c3nc(C4CN(C(=O)CC(C)(C)C)C4)no3)cc21 [Compound 606]	–	–	0.737	> 45
CC(CF)n1ncc2ccc(-c3noc(C4CCN(C(=O)OC5(C)CC5)CC4)n3)cc21 (centres unmarked) [Compound 607]	–	–	0.511	> 45
CNC(=O)OC1CCC(c2nc(-c3ccc4cnn(C(C)C)c4c3)no2)CC1 (centres unmarked) [Compound 608]	–	–	> 45	> 45
